Results published in paper PMC11003488 (Journal of Enzyme Inhibition and Medicinal Chemistry, 2023).
“And” between values parts separate entries of the source, which are not always exact repeats. Equal values may be shown once. Read-outs that look alike come from different tables or passages of the source.

Assays:
[1] = system: MDA-MB-231/ATCC; assay: NCI-60 SRB growth inhibition, one-dose and five-dose; format: cell-based; settings: Homo sapiens, MDA-MB-231
[2] = system: Caspase-3; assay: Gene expression by RT-qPCR in HCT-116; settings: HCT-116, 24 h, IC50 of compound; vs 0.1% DMSO; 2^-ΔΔct
[3] = system: TK-10; assay: NCI-60 SRB growth inhibition, one-dose and five-dose; format: cell-based; settings: Homo sapiens
[4] = system: SW-620; assay: as above; format: cell-based; settings: Homo sapiens
[5] = system: UACC-257; assay: as above; format: cell-based; settings: Homo sapiens
[6] = system: SK-OV-3; assay: as above; format: cell-based; settings: Homo sapiens
[7] = Cytotoxicity towards normal fibroblasts, safety index; format: cell-based, human; settings: human, WI-38 normal fibroblast cells
[8] = system: WI-38 normal human fibroblast cells; assay: as above; format: cell-based; settings: WI-38 versus cancer cell lines
[9] = system: Melanoma cell lines; assay: NCI-60 SRB growth inhibition, subpanel; format: cell-based, human; settings: for GI50: Homo sapiens
[10] = system: Colon cancer cell lines; assay: NCI-60 SRB growth inhibition, subpanel; format: cell-based, human; settings: for GI50: Homo sapiens
[11] = system: SN12C; assay: NCI-60 SRB growth inhibition, one-dose and five-dose; format: cell-based; settings: Homo sapiens
[12] = system: Ovarian cancer cell lines; assay: NCI-60 SRB growth inhibition, subpanel; format: cell-based, human; settings: for GI50: Homo sapiens
[13] = biological target: Human VEGFR-2 (Homo sapiens, UniProt P35968); assay: VEGFR-2 inhibition assay; format: biochemical
[14] = system: RPMI-8226; assay: NCI-60 SRB growth inhibition, one-dose and five-dose; format: cell-based; settings: Homo sapiens
[15] = system: 786-0; assay: as above; format: cell-based; settings: Homo sapiens
[16] = system: Leukaemia cell lines; assay: NCI-60 SRB growth inhibition, subpanel; format: cell-based, human; settings: Homo sapiens
[17] = system: NSCLC cell lines; assay: NCI-60 SRB growth inhibition, subpanel; format: cell-based, human; settings: for GI50: Homo sapiens
[18] = system: CNS cancer cell lines; assay: NCI-60 SRB growth inhibition, subpanel; format: cell-based, human; settings: for GI50: Homo sapiens
[19] = system: NCI-H322M; assay: NCI-60 SRB growth inhibition, one-dose and five-dose; format: cell-based; settings: Homo sapiens
[20] = system: HT29; assay: as above; format: cell-based; settings: Homo sapiens
[21] = system: HCT-116 (colon cancer); assay: Cell cycle analysis by PI flow cytometry; format: cell-based, human; settings: HCT-116, 24 h, IC50 of compound
[22] = system: Breast cancer cell lines; assay: NCI-60 SRB growth inhibition, subpanel; format: cell-based, human; settings: for GI50: Homo sapiens
[23] = system: UO-31; assay: NCI-60 SRB growth inhibition, one-dose and five-dose; format: cell-based; settings: Homo sapiens, UO-31
[24] = system: Caspase-3; assay: Protein level by ELISA assay in HCT-116; format: cell-based, human; settings: HCT-116, IC50 of compound, 24 h, vs 0.1% DMSO
[25] = system: NCI-H460; assay: NCI-60 SRB growth inhibition, one-dose and five-dose; format: cell-based; settings: Homo sapiens
[26] = system: Renal cancer cell lines; assay: NCI-60 SRB growth inhibition, subpanel; format: cell-based, human; settings: for GI50: Homo sapiens
[27] = system: NCI/ADR-RES; assay: NCI-60 SRB growth inhibition, one-dose and five-dose; format: cell-based; settings: Homo sapiens
[28] = system: TNF-α; assay: Gene expression by RT-qPCR in HCT-116; settings: HCT-116, 24 h, IC50 of compound; vs 0.1% DMSO; 2^-ΔΔct
[29] = system: Prostate cancer cell lines; assay: NCI-60 SRB growth inhibition, subpanel; format: cell-based, human; settings: for GI50: Homo sapiens
[30] = system: ACHN; assay: NCI-60 SRB growth inhibition, one-dose and five-dose; format: cell-based; settings: Homo sapiens
[31] = system: SNB-75; assay: as above; format: cell-based; settings: Homo sapiens
[32] = system: M14; assay: as above; format: cell-based; settings: Homo sapiens
[33] = system: Bax; assay: Gene expression by RT-qPCR in HCT-116; settings: HCT-116, 24 h
[34] = system: Bax; assay: Protein level by ELISA assay in HCT-116; format: cell-based, human; settings: HCT-116, IC50 of compound, 24 h, vs 0.1% DMSO
[35] = system: NCI-H23; assay: NCI-60 SRB growth inhibition, one-dose and five-dose; format: cell-based; settings: Homo sapiens
[36] = system: HCT-116 (colon cancer); assay: Apoptosis AV/PI assay by flow cytometry; format: cell-based, human; settings: HCT-116, 24 h, IC50 of compound
[37] = system: UACC-62; assay: NCI-60 SRB growth inhibition, one-dose and five-dose; format: cell-based; settings: Homo sapiens
[38] = system: SF-295; assay: as above; format: cell-based; settings: Homo sapiens
[39] = read-out: percent growth inhibition

Chain of Human VEGFR-2 (P35968 20-1356): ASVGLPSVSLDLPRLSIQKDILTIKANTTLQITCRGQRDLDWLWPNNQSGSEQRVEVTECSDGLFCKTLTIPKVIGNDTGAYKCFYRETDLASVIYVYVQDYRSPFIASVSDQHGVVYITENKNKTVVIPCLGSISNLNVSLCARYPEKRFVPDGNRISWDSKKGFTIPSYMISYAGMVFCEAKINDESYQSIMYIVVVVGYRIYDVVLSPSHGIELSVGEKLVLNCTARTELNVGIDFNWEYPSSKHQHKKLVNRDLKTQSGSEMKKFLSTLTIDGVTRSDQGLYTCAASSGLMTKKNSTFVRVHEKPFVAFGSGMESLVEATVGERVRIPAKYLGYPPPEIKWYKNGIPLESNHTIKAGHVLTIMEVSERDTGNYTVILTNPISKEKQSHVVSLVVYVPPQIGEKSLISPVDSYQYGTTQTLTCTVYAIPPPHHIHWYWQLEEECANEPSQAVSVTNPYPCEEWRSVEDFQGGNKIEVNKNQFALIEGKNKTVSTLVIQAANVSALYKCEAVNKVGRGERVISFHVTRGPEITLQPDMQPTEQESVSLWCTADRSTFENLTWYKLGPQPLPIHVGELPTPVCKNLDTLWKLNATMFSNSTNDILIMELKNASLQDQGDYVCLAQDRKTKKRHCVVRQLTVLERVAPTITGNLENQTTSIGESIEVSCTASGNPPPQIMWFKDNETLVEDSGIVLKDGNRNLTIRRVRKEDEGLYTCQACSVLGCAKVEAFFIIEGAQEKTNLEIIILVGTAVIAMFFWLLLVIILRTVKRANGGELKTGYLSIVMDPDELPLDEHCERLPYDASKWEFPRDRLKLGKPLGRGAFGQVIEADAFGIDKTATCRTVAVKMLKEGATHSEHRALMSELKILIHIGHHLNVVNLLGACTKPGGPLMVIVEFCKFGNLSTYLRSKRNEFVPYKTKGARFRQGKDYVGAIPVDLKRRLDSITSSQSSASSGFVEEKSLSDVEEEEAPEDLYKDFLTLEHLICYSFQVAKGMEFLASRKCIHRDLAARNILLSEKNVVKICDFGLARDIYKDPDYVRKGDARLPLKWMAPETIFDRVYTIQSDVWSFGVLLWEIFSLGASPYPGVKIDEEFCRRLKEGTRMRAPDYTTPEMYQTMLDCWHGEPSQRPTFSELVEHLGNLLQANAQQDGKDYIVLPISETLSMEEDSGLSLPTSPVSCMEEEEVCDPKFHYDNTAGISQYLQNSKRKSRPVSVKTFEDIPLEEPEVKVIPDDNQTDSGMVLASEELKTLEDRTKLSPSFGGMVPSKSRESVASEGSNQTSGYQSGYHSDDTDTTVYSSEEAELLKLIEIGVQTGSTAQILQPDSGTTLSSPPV

With O=C(/C=C/c1cccnc1)c1cccc(NCc2ccc(CO)cc2)c1 [Compound 5e, (E)-1–(3-((4-(hydroxymethyl)benzyl)amino)phenyl)-3-(pyridin-3-yl)prop-2-en-1-one] the GI50 [1] was 3.75 µM, the “Caspase-3 gene expression fold change” value [2] was 2.28 ± 0.14 fold and the GI50 ([3]; TK-10) was 15 µM. The inhibition at 10 µM ([3]; TK-10, read-out: percent growth inhibition) was 30.6%, the GI50 ([4]; SW-620) was 2.06 µM and the inhibition at 10 µM ([4]; SW-620, read-out: percent growth inhibition) was 140%. For the same compound, the GI50 ([5]; UACC-257) was 14.7 µM, the inhibition at 10 µM ([5]; UACC-257, read-out: percent growth inhibition) was 61.4% and the GI50 ([6]; SK-OV-3) was 15.8 µM. For the same compound, the inhibition at 10 µM ([6]; SK-OV-3, read-out: percent growth inhibition) was 0.04%, the GI50 at 48 h [7] was greater than 100 µM and the Safety index [8] was greater than 1. The GI50 ([9]; read-out: GI50 MG-MID) was 10.6 µM, the GI50 ([9]; read-out: MG-MID GI50) was 10.6 µM and the “SI (Selectivity Index)” value ([9]; full panel MG-MID / Melanoma subpanel MG-MID) was 0.94. The GI50 ([10]; read-out: GI50 MG-MID) was 6.42 µM, the GI50 ([10]; read-out: MG-MID GI50) was 6.42 µM and the “SI (Selectivity Index)” value ([10]; full panel MG-MID / Colon Cancer subpanel MG-MID) was 1.55. For the same compound, the GI50 [11] was 12.3 µM, the inhibition at 10 µM [11, 39] was 94.4% and the GI50 ([12]; read-out: GI50 MG-MID) was 11.2 µM. The GI50 ([12]; read-out: MG-MID GI50) was 11.2 µM, the “SI (Selectivity Index)” value ([12]; full panel MG-MID / Ovarian Cancer subpanel MG-MID) was 0.89 and the IC50 [13] was 0.37 ± 0.012 µM. The GI50 ([14]; RPMI-8226) was 2.27 µM, the inhibition at 10 µM ([14]; RPMI-8226, read-out: percent growth inhibition) was 133% and the GI50 ([15]; 786-0) was 15.2 µM. It also gave an inhibition at 10 µM ([15]; 786-0, read-out: percent growth inhibition) of 108%, a GI50 ([16]; read-out: GI50 MG-MID) of 3.29 µM and a GI50 ([16]; read-out: MG-MID GI50) of 3.29 µM. The GI50 ([17]; read-out: GI50 MG-MID) was 13.6 µM, the GI50 ([17]; read-out: MG-MID GI50) was 13.6 µM and the “SI (Selectivity Index)” value ([17]; full panel MG-MID / NSCLC subpanel MG-MID) was 0.73. For the same compound, the GI50 ([18]; read-out: GI50 MG-MID) was 12.2 µM, the GI50 ([18]; read-out: MG-MID GI50) was 12.2 µM and the “SI (Selectivity Index)” value ([18]; full panel MG-MID / CNS Cancer subpanel MG-MID) was 0.82. The GI50 [19] was 15 µM, the inhibition at 10 µM [19, 39] was 18.6% and the GI50 ([20]; HT-29) was 8.21 µM. The inhibition at 10 µM ([20]; HT-29, read-out: percent growth inhibition) was 173%, the “% G0-G1” value [21] was 30.02 ± 7.1% and the “% G2M” value [21] was 10.42 ± 1.7%. The “% S” value [21] was 10.55 ± 3.5%, the “% SubG0-G1” value [21] was 49.01 ± 7.2% and the GI50 ([22]; read-out: GI50 MG-MID) was 7.2 µM. For the same compound, the GI50 ([22]; read-out: MG-MID GI50) was 7.2 µM, the “SI (Selectivity Index)” value ([22]; full panel MG-MID / Breast Cancer subpanel MG-MID) was 1.38 and the GI50 [23] was 11.2 µM. The caspase-3 protein level [24] was 58.44 fold, the GI50 ([25]; NCI-H460) was 14 µM and the inhibition at 10 µM ([25]; NCI-H460, read-out: percent growth inhibition) was 64.7%. The GI50 ([26]; read-out: GI50 MG-MID) was 13 µM, the GI50 ([26]; read-out: MG-MID GI50) was 13 µM and the “SI (Selectivity Index)” value ([26]; full panel MG-MID / Renal Cancer subpanel MG-MID) was 0.77. The GI50 [27] was 11.3 µM, the inhibition at 10 µM [27, 39] was 104% and the “TNF-α gene expression fold change” value [28] was 372 fold and 372.22 ± 10.8 fold. The GI50 ([29]; read-out: GI50 MG-MID) was 12.2 µM, the GI50 ([29]; read-out: MG-MID GI50) was 12.2 µM and the “SI (Selectivity Index)” value ([29]; full panel MG-MID / Prostatic Cancer subpanel MG-MID) was 0.82. It also gave a GI50 [30] of 8.07 µM, an inhibition at 10 µM [30, 39] of 81.6% and a GI50 ([31]; SNB-75) of 9.69 µM. The inhibition at 10 µM ([31]; SNB-75, read-out: percent growth inhibition) was 14.7%, the GI50 ([32]; M14) was 12.4 µM and the inhibition at 10 µM ([32]; M14, read-out: percent growth inhibition) was 91.9%. The “Bax gene expression fold change” value ([33]; IC50 of compound, vs 0.1% DMSO, 2^-ΔΔct) was 5 fold and 5.00 ± 1.1 fold, the Bax/Bcl-2 ratio ([33]; ratio of gene expression fold changes) was 4.5 and the Bax protein level [34] was 3.14 fold. For the same compound, the GI50 ([35]; NCI-H23) was 12.9 µM, the inhibition at 10 µM ([35]; NCI-H23, read-out: percent growth inhibition) was 79.3% and the “% Early apoptotic cells (LR)” value [36] was 0.05 ± 0.001%. The “% Late apoptotic cells (UL)” value [36] was 94.74 ± 8.9%, the “% Necrotic cells (UR)” value [36] was 2.71 ± 0.33% and the “% Viable cells (LL)” value [36] was 2.50 ± 0.12%. The GI50 ([37]; UACC-62) was 11.3 µM, the inhibition at 10 µM ([37]; UACC-62, read-out: percent growth inhibition) was 59.8% and the GI50 ([38]; SF-295) was 14.5 µM. For the same compound, the inhibition at 10 µM ([38]; SF-295, read-out: percent growth inhibition) was 39.8%.
